In PMC4754833, “Rilpivirine analogs potently inhibit drug-resistant HIV-1 mutants” (Retrovirology, 2016):
Like-named read-outs stand apart in the source and are kept apart here.

Columns and labels:
[1] = tested on: WT HIV-1; experiment: single round infection luciferase assay, WT HIV-1; assay type: cell-based; settings: Human immunodeficiency virus 1
Description: (§1) The human osteosarcoma cell line, HOS, was obtained from Dr. Richard Schwartz (Michigan State University, East Lansing, MI) and grown in Dulbecco’s modified Eagle’s medium (Invitrogen, Carlsbad, CA) supplemented with 5 % (v/v) fetal bovine serum, 5 % newborn calf serum, and penicillin (50 units/ml) plus streptomycin (50 µg/ml; Quality Biological, Gaithersburg, MD). Virion production and single-round infectivity assays were used to determine antiviral activity (IC50 values) of the compounds as previously described.
(§2) pNLNgoMIVR-ΔEnv.LUC has been described previously. The RT open reading frame was removed from pNLNgoMIVR-ΔEnv.LUC (digestion with SpeI and SalI) and inserted between the SpeI and SalI sites of pBluescript II KS+. Using that construct as the wild-type template, we prepared the following HIV-1 RT mutants using the QuikChange II XL (Stratagene, La Jolla, CA) site-directed mutagenesis protocol kit: L100I, K103N, Y181C, Y188L, H221Y, K103N/Y181C, G190A, G190S, M230L, P236L, L100I/K103N, K103N/P225H, V106A/G190A/F227L, V106A, L234I, V106A/F227L, V106A/L234I, V106A/F227L/L234I, E40K, D67E, K101E, V111A, E138K, M184I, M184V, K101E/M184I, K101E/M184V, E138K/M184I, E138K/M184V, K101P, Y181I, and K101P/V179I. The following sense oligonucleotides were used with matching cognate antisense oligonucleotides (not shown) (Integrated DNA Technologies, Coralville, IA) in the mutagenesis: L100I, 5′-[…]-3′; L100I 2-103, 5′-[…]-3′; K103N, 5′-[…]-3′; Y181C, 5′-[…]-3′; Y188L, 5′-[…]-3′; H221Y, 5′-[…]-3′; G190A, 5′-[…]-3′; G190S, 5′-[…]-3′; P225H, 5′-[…]-3′; F227, 5′-[…]-3′; M230L, 5′-[…]-3′; P236L, 5′-[…]-3′; V106A, 5′-[…]-3′; L234I, 5′-[…]-3′; E40K, 5′-[…]-3′; D67E, 5′-[…]-3′; K101E, 5′-[…]-3′; V111A, 5′-[…]-3′; E138K, 5′-[…]-3′; M184I, 5′-[…]-3′; M184V, 5′-[…]-3′; K101P, 5′-[…]-3′; Y181I, 5′-[…]-3′; K101P/V179I, 5′-[…]-3′. The double mutants K103N/Y181C, K103N/P225H, and L100I/K103N were made using the previously generated K103N mutant and the appropriate oligonucleotides to add the second mutation, Y181C, P225, and L100I respectively. The double mutants V106A/F227L and V106A/L234I were prepared using the previously generated V106A mutant and the appropriate oligonucleotides to add the second mutation, F227L and L234I, respectively. The double mutants K101E/M184I and K101E/M184V were constructed using the previously generated K101E mutant and the appropriate oligonucleotides to add the second mutation, M184I and M184V, respectively. The double mutants E138K/M184I and E138K/M184V were constructed using the previously generated E138K mutant and the appropriate oligonucleotides for the second mutation, M184I and M184V, respectively. The triple mutant V106A/F227L/L234I was made using the previously generated V106A/F227L double mutant and the appropriate oligonucleotides for the third mutation, L234I. The triple mutant V106A/G190A/F227L was constructed in a series of steps using the previously generated V106A mutant and the appropriate oligonucleotides for the second mutation, G190A, to generate the double mutant V106A/G190A, and then the triple mutant was made using double mutant V106A/G190A and oligonucleotides for the third mutation, F227L. The DNA sequence of each construct was verified by DNA sequence determination. The sequences encoding the mutant RTs were then subcloned into pNLNgoMIVR-ΔEnv.LUC (between the KpnI and SalI sites) to produce the mutant HIV-1 constructs. These DNA sequences were also checked independently by DNA sequence determination.
(§3) 10.1186/s12977-016-0244-2 The IC50 values (nM) of RPV and the RPV analogs were determined against the NNRTI resistant mutants were measured by using a single round infection assay, n = 4. The concentrations (nM) are measured by reductions in luciferase reporter activity followed by the standard deviations. […]

[2] = tested on: HIV-1 RT mutant G190A; experiment: single round infection assay, G190A; assay type: cell-based; settings: Human immunodeficiency virus 1
Description: as §1, §2, §3

[3] = tested on: HIV-1 RT mutant G190S; experiment: single round infection assay, G190S; assay type: cell-based; settings: Human immunodeficiency virus 1
Description: as §1, §2, §3

[4] = tested on: HIV-1 RT mutant M230L; experiment: single round infection assay, M230L; assay type: cell-based; settings: M230L vs WT
Description: as §1, §2, §3

[5] = tested on: HIV-1 RT mutant P236L; experiment: single round infection assay, P236L; assay type: cell-based
Description: as §1, §2, §3

[6] = tested on: HIV-1 RT mutant K103N/P225H; experiment: single round infection assay, K103N/P225H; assay type: cell-based; settings: Human immunodeficiency virus 1
Description: as §1, §2, §3

[7] = tested on: HIV-1 RT mutant V106A/G190A/F227L; experiment: single round infection assay, V106A/G190A/F227L; assay type: cell-based
Description: as §1, §2, §3

[8] = tested on: HIV-1 RT mutant V106A/F227L; experiment: single round infection assay, V106A/F227L; assay type: cell-based; settings: V106A/F227L vs WT
Description: as §1, §2, §3

[9] = tested on: HIV-1 RT mutant V106A/F227L/L234I; experiment: single round infection assay, V106A/F227L/L234I; assay type: cell-based; settings: for IC50: ± SD, n=4
Description: as §1, §2, §3

[10] = tested on: HIV-1 RT mutant D67E; experiment: single round infection assay, D67E; assay type: cell-based; settings: D67E vs WT
Description: as §1, §2, §3

[11] = tested on: HIV-1 RT mutant E138K; experiment: single round infection assay, E138K; assay type: cell-based; settings: E138K vs WT
Description: as §1, §2, §3

[12] = tested on: HIV-1 RT mutant E138K/M184I; experiment: single round infection assay, E138K/M184I; assay type: cell-based; settings: E138K/M184I vs WT
Description: as §1, §2, §3

[13] = tested on: HIV-1 RT mutant K101P; experiment: single round infection assay, K101P; assay type: cell-based
Description: as §1, §2, §3

[14] = tested on: HIV-1 RT mutant Y181I; experiment: single round infection assay, Y181I; assay type: cell-based
Description: as §1, §2, §3

[15] = tested on: HIV-1 RT mutant K101P/V179I; experiment: single round infection assay, K101P/V179I; assay type: cell-based
Description: as §1, §2, §3

[16] = tested on: WT HIV-1; settings: previous study; cited from earlier work
[17] = tested on: HIV-1 RT mutant L100I; design: method as in PMID 23217210; settings: previous study; cited from earlier work
[18] = tested on: HIV-1 RT mutant K103N; design: method as in PMID 23217210; settings: previous study; cited from earlier work
[19] = tested on: HIV-1 RT mutant Y181C; design: method as in PMID 23217210; settings: previous study; cited from earlier work
[20] = tested on: HIV-1 RT mutant H221Y; design: method as in PMID 23217210; settings: previous study; cited from earlier work
[21] = tested on: HIV-1 RT mutant K103N/Y181C; design: method as in PMID 23217210; settings: previous study; cited from earlier work

Cc1cc(/C=C/C#N)cc(C)c1Nc1nc(Nc2ccc(C#N)cc2)nc2[nH]cnc12 [compound 11]
IC50 [1]: 0.56 ± 0.08 nM | IC50 [2]: 0.45 ± 0.01 nM | IC50 [3]: 0.2 ± 0.07 nM | fold-change of IC50 of the mutant relative to WT [4]: 3 | IC50 ([5]; Human immunodeficiency virus 1): 0.87 ± 0.2 nM | fold-change of IC50 of the mutant relative to WT ([5]; P236L vs WT): < 2 | IC50 [6]: 0.22 ± 0.06 nM | IC50 ([7]; Human immunodeficiency virus 1): 0.98 ± 0.17 nM | fold-change of IC50 of the mutant relative to WT ([7]; V106A/G190A/F227L vs WT): < 2 | fold-change of IC50 of the mutant relative to WT [8]: < 2 | IC50 ([9]; Human immunodeficiency virus 1, V106A/F227L/L234I (selected by DOR)): < 5 nM | IC50 ([9]; V106A/F227L/L234I (selected by DOR)): 3.4 ± 1.1 nM | fold-change of IC50 of the mutant relative to WT ([9]; V106A/F227L/L234I vs WT): 6 | fold-change of IC50 of the mutant relative to WT [10]: < 2 | fold-change of IC50 of the mutant relative to WT [11]: < 2 | fold-change of IC50 of the mutant relative to WT [12]: < 2 | IC50 ([13]; Human immunodeficiency virus 1): 2.4 nM | fold-change of IC50 of the mutant relative to WT ([13]; K101P vs WT): 4 | IC50 ([14]; Human immunodeficiency virus 1): 2.4 nM | fold-change of IC50 of the mutant relative to WT ([14]; Y181I vs WT): 4 | IC50 ([15]; Human immunodeficiency virus 1): 2.5 nM | fold-change of IC50 of the mutant relative to WT ([15]; K101P/V179I vs WT): 4 | IC50 [16]: < 7 nM | IC50 [17]: < 7 nM | IC50 [18]: < 7 nM | IC50 [19]: < 7 nM | IC50 [20]: < 7 nM | IC50 [21]: < 5 nM
